{"source": "paper PMC3634896", "about": "(Bioorganic & medicinal chemistry letters, 2013)", "key": {"[1]": {"target": "T1, human M5 (Homo sapiens, UniProt P08912)", "T1 sequence (P08912 1-532)": "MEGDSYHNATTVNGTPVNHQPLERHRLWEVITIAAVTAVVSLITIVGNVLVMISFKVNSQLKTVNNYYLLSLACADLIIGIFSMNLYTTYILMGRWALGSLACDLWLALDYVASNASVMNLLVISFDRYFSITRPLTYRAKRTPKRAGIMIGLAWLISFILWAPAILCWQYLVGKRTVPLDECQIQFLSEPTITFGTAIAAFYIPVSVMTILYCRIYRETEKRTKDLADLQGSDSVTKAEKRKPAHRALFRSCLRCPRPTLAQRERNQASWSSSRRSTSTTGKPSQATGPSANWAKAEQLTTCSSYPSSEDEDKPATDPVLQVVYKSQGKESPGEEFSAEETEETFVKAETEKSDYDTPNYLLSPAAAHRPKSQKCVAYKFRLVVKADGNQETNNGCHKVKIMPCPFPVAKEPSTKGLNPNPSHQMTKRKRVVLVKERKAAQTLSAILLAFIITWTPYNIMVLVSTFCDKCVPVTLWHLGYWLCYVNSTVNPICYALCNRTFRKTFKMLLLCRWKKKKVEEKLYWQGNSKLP", "experiment": "M5 PAM concentration-response-curve", "format": "cell-based", "conditions": "Table 1, average of three independent experiments"}, "[2]": {"test_system": "CYP", "experiment": "CYP profile", "format": "in vitro ADME"}, "[3]": {"experiment": "ancillary pharmacology profile"}, "[4]": {"target": "T2, rat M5 (Rattus norvegicus, UniProt P08911)", "T2 sequence (P08911 1-531)": "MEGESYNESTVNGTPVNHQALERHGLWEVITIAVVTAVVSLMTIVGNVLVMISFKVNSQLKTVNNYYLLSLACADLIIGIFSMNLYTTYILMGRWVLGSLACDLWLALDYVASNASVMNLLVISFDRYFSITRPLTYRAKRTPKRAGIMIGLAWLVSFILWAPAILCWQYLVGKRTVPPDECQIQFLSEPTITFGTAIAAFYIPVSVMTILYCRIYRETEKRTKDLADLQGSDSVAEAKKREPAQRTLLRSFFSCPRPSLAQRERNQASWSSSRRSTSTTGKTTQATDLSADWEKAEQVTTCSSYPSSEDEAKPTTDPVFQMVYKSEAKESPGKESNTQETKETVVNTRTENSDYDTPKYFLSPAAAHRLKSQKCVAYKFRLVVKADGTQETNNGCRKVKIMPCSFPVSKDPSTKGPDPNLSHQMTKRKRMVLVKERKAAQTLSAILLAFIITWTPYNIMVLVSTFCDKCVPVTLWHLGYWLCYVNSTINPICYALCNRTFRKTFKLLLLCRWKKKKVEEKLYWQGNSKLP", "experiment": "M5 PAM CRC, rat M5", "format": "cell-based"}, "[5]": {"test_system": "M1-M4", "experiment": "human mAChR selectivity versus M1-M4", "format": "cell-based", "conditions": "read-out: M1-M4 EC50s; human data is the same as rat"}, "[6]": {"test_system": "M1-M4", "experiment": "rat mAChR selectivity versus M1-M4", "format": "cell-based", "conditions": "read-out: M1-M4 EC50s; rat (Fig. 5C); text does not state species"}}, "note": "“And” between values parts separate entries of the source, which are not always exact repeats. Equal values may be shown once."}
{"smiles": "O=C1C(=O)N(CCOc2ccc(Cl)cc2)c2ccc(OC(F)(F)F)cc21", "note": "[Compound 19b]", "values": [{"measurement": "pEC50±SEM", "setting": "[1]", "result": "6.35±0.04"}]}
{"smiles": "Cc1cccc(OCCN2C(=O)C(=O)c3cc(OC(F)(F)F)ccc32)c1", "note": "[Compound 19d]", "values": [{"measurement": "pEC50±SEM", "setting": "[1]", "result": "6.28±0.03"}]}
{"smiles": "O=C1C(=O)N(CCOc2ccccc2)c2ccc(OC(F)(F)F)cc21", "note": "[ML326, 1-(2-phenoxyethyl)-5-(trifluoromethoxy)indoline-2,3-dione]", "values": [{"measurement": "CYP profile", "setting": "[2]", "result": "relatively clean"}, {"measurement": "ancillary pharmacology profile", "setting": "[3]", "result": "relatively clean"}, {"measurement": "EC50", "setting": "[4]", "result": 0.5, "unit": "µM"}, {"measurement": "pEC50±SEM", "setting": "[1]", "result": "6.39±0.04"}, {"measurement": "EC50", "setting": "[5]", "result": "> 30", "unit": "µM"}, {"measurement": "EC50", "setting": "[6]", "result": "> 30 µM and < 30 µM"}]}
